The test system of data set [1] is HT-1080. Put plainly: Cytotoxicity against human HT-1080 cells incubated for 48 hrs by CCK-8 assay. Type of data set: functional, cell-based. Particulars: HT-1080, 48 h. In general terms: Formazan colour is commonly taken as a measure of viable cells.
The nature of data set [2]: Selectivity index, ratio of IC50 for human HPNE cells to IC50 for human HT-1080 cells.
Data set [3] relates to HT-1080. The experiment in a line: Induction of ferroptosis in human HT-1080 cells assessed as accumulation of intracellular ROS level at 4 uM after 12 hrs by DCFH-DA staining based confocal laser scanning microscopy analysis. Type of data set: functional, cell-based.
The test system of data set [4] is HT-1080. The experiment in a line: Induction of ferroptosis in human HT-1080 cells assessed as appearance of ruptured mitochondria at 4 uM after 24 hrs by transmission electron microscope analysis. Type of data set: functional, cell-based.
Data set [5] deals with HT-1080. The experiment in a line: Cytotoxicity against human HT-1080 cells assessed as cell viability at 4 uM in presence of fer-1 (reference value: 30%). Type of data set: functional. Particulars: read-out: Activity.
The target in data set [6] is T1, Phospholipid hydroperoxide glutathione peroxidase GPX4 (Homo sapiens) (UniProt P36969).
T1 sequence (whole entry): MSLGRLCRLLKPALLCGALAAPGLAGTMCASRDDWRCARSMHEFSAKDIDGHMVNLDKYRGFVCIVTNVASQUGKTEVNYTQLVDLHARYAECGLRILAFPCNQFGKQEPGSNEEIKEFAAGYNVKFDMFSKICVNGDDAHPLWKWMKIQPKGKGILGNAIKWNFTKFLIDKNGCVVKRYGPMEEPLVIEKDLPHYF
Put plainly: Induction of GPX4 degradation in human HT-1080 cells at 2 to 4 uM after 24 hrs in presence of MG132 by Western blotting assay. The class given is cell-based. Particulars: dose 2-4 µM. (A western blot detects proteins with antibodies after separation by electrophoresis.)

Data set [7] relates to HT-1080. The experiment in a line: Induction of apoptosis in human HT-1080 cells assessed as increase in Bax level after 24 hrs by Western blotting analysis. The conditions noted are these: dose 0.5-4 µM. Type of data set: functional, cell-based.
For data set [8], the system named is HT-1080. Put plainly: Induction of apoptosis in human HT-1080 cells assessed as decrease in Bcl-2 level after 24 hrs by Western blotting analysis. Type of data set: functional, cell-based. The conditions noted are these: dose 0.5-4 µM.
Data set [9] deals with HT-1080. The experiment in a line: Induction of apoptosis in human HT-1080 cells assessed as viable cells at 1 uM incubated for 24 hrs by Annexin-V FITC/PI staining based flow cytometry analysis (reference value: 92.5%). The class given is functional. The conditions noted are these: read-out: Activity. On the technique in general: In flow cytometry, cells or beads pass a laser one at a time.

Data set [10] concerns HT-1080. The experiment in a line: Induction of apoptosis in human HT-1080 cells assessed as late apoptotic cells at 1 uM incubated for 24 hrs by Annexin-V FITC/PI staining based flow cytometry analysis (reference value: 1.66%). Type of data set: functional.
Data set [11] relates to HT-1080. The experiment in a line: Induction of apoptosis in human HT-1080 cells assessed as viable cells at 2 uM incubated for 24 hrs by Annexin-V FITC/PI staining based flow cytometry analysis (reference value: 92.5%). The class given is functional. Particulars: read-out: Activity.
Data set [12] concerns HT-1080. Put plainly: Induction of apoptosis in human HT-1080 cells assessed as early apoptotic cells at 2 uM incubated for 24 hrs by Annexin-V FITC/PI staining based flow cytometry analysis (reference value: 1.85%). Type of data set: functional.
In data set [13] the test system is HT-1080. The experiment in a line: Induction of apoptosis in human HT-1080 cells assessed as necrotic cells at 2 uM incubated for 24 hrs by Annexin-V FITC/PI staining based flow cytometry analysis (reference value: 3.98%). The class given is functional.
The test system of data set [14] is HT-1080. Put plainly: Induction of apoptosis in human HT-1080 cells assessed as early apoptosis at 1 to 2 uM incubated for 48 hrs by Annexin-V FITC/PI staining based flow cytometry analysis. The class given is functional, cell-based. The conditions noted are these: dose 1-2 µM.
In data set [15] the test system is HT-1080. The experiment in a line: Antitumor activity against human HT-1080 cells xenografted in BALB/c nude mouse assessed as tumor growth inhibition at 40 mg/kg, ip administered once daily for 19 days and measured every 2 days. Type of data set: functional. The conditions noted are these: HT-1080, 456 h, time 19 day, read-out: TGI.
Data set [16] in a line: Toxicity in BALB/c nude mouse xenografted with human HT-1080 cells assessed as change in heart morphology at 20 to 40 mg/kg, ip administered once daily for 19 days and measured every 2 days by H and E staining based assay. The class given is organism-based. The conditions noted are these: in vivo, 456 h, dose 20-40 mg/kg, time 19 day.
Data set [17] is described as follows: Toxicity in BALB/c nude mouse xenografted with human HT-1080 cells assessed as edema at 20 to 40 mg/kg, ip administered once daily for 19 days and measured every 2 days by H and E staining based assay. Type of data set: organism-based. The conditions noted are these: in vivo, 456 h, dose 20-40 mg/kg, time 19 day.
The test system of data set [18] is AMG 510-resistant MIA PaCa-2. The experiment in a line: Cytotoxicity against human AAMG 510-resistant MIA PaCa-2 cells upto 5 uM. Type of data set: functional, cell-based.

Activity calls are given as the source filed them. The rule behind the calls is not given here.

Compound `O=C(CCCCCNC1=CC(=O)c2ccccc2C1=O)Nc1ccc(N(C(=O)CCl)C(C(=O)NCCc2ccccc2)c2cccs2)cc1` (stereo not drawn) yielded a half-maximal inhibitory concentration (IC50) in [1] of 1600 nM. Also, in data set [2], the “Ratio IC50” value is reported as 5.96. In addition, the result in [3], in [4] and in data set [14] was Active. The viability at 4 µM in data set [5] was determined as 66%. The result in [6] and in data set [18] was inactive. The Activity result in data set [7] is “Dose-Dependent Effect”; in [8], “Dose-Dependent Effect”; in [10], 3.11%; in [12], 8.48%; in [13], 4.02%; in data set [16] it was “Non-Toxic”. For the same compound, the Activity result in data set [17] is listed as “Non-Toxic”. Also, in data set [9], the viability at 1 µM was found to be 90.7%. The viability at 2 µM in [11] was found to be 82.7%. In [15], the inhibition in vivo at 40 mg/kg is 63%.

The IC50 is the concentration needed to halve the response being measured. A higher IC50 goes with a need for much substance.

The record behind these values is ChEMBL document CHEMBL5500352, “ML162 derivatives incorporating a naphthoquinone unit as ferroptosis/apoptosis inducers: Design, synthesis, anti-cancer activity, and drug-resistance reversal evaluation” (Eur J Med Chem, 2024).
